Laboratory results published in patent publication US20260185980A1, “METHOD OF PREVENTING AND/OR REDUCING METASTASIS OF TUMOR CELLS, PREVENTING OR REDUCING SENESCENCE, INHIBITING DIFFERENTIATION AND OF REDUCING INFLAMMATION” (Albert-Ludwigs-Universitaet, priority 2022, published 2026).
Peptide text beside a SMILES is read from it. * marks the point of attachment. Cbz = O=C(OCc1ccccc1)*; CH2F = FC*

Columns and labels:
[1] = biological target: T1, caspase-activated CAD (Homo sapiens, UniProt O76075); experiment: Assay B: Inhibition of caspase-activated CAD (ABT-737 plus S63845, γH2AX); assay type: cell-based; details: HeLa229-CTRL3 cells, compound pre-treatment 1 hour, ABT-737 50 nM plus S63845 250 nM 2.5 hours
T1 construct: endogenous in cells; host or cells: HeLa229-CTRL3 cells (LentiCRISPRV2_puro with non-targeted gRNA)
T1 sequence (O76075 1-338): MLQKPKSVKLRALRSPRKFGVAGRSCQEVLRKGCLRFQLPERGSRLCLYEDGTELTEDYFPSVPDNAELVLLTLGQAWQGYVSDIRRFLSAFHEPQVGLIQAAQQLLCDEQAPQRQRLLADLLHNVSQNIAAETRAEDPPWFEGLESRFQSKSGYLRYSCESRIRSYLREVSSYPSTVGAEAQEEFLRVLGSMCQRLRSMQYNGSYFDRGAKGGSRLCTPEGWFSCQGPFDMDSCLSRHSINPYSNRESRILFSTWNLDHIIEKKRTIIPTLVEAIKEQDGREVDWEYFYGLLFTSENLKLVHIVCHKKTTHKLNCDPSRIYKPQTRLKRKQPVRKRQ
Protocol: FIG. 12 Activity of compounds against caspase-activated CAD A, HeLa229-CTRL3 cells (transduced with a LentiCRISPRV2_puro virus encoding a non-targeted gRNA) or Hela229 cells transduced with a CAD-targeted LentiCrisprV2 virus (resulting in CAD-deficient cells (CAD KO)) were seeded as described in FIG. 11 and stimulated with […] ABT-737 [50 nM] plus S63845 [250 nM] for 2.5 hours the next day. Subsequent analysis of the cells was performed as described in FIG. 11.
FIG. 12B, HeLa229-CTRL3 cells were seeded as in A and pre-treated (or not) with the indicated compounds and concentrations (Comp) for 1 hour, followed by treatment with ABT-737 plus […] for 2.5 hours. Proteins were detected as described in FIG. 11.
While in the screening we activated CAD with auxin-induced degradation of its inhibitor, CAD is physiologically activated by caspases. […] Test compounds were added 1 h previously. The activity of CAD was measured by the DDR as above (γH2AX). […] The compounds that will be used to inhibit CAD are shown in boxes. Such preferred compounds are: CBN16; CBN17; CBN62; CBN65; CBN66; CBN68; MB4; CD9; CD22 and MB26.

[2] = biological target: T2, CAD (Homo sapiens, UniProt O76075); experiment: Assay A: Inhibition of the CAD-dependent DNA-damage response (DDR), γH2AX Western blot; assay type: cell-based; details: HeLa229-Tir1-iCAD-mAID-GFP cells, compound 10 μM pre-incubated 1 hour, auxin 5 μM 4 hours
T2 construct: endogenous in cells; host or cells: HeLa229-Tir1-iCAD-mAID-GFP cells
T2 sequence (O76075 1-338): T1 sequence (O76075 1-338)
Protocol: Cells were seeded, pre-incubated with the individual compounds and treated with auxin. The DDR (a consequence of CAD-activity) was measured by Western blotting for the marker γH2AX. […] Such preferred compounds are: MB4, MB26; MB33; MB37; CBN16; CBN17; CBN40; CBN62; CBN65; CBN66; CBN68; CD9 and CD22.
FIG. 11 Confirmation of CAD-inhibition: auxin-dependent DDR. HeLa229-Tir1-iCAD-mAID-GFP cells were seeded on a 48-well plate (50,000 cells/well). 24 hours later, cells were pre-incubated (or not) with the indicated compounds (Comp, 10 μM) for 1 hour, followed by auxin treatment [5 μM] for 4 hours. Cells were lysed in Laemmli buffer and lysates were loaded onto SDS-PAGE followed by Western blotting against the indicated proteins. The DNA damage marker γH2AX was used as an indicator of CAD activity. The two left lanes of each gel are negative and positive controls (without and with auxin but without compound; instead, DMSO was used as solvent control). Compounds are indicated at the top.

[3] = system: cancer cells; experiment: Aggressive cancer growth in vitro (migration, invasion through a basement membrane, colony formation on soft agar); assay type: cell-based; details: caspase-inhibition by the pan-caspase-inhibitor
Source text: A, migratory activity of cells with or without CAD (scratch assay). Percentages of the area closed upon scratch are given. In this assay, a monolayer of cells is mechanically scratched, and the cells migrate back to fill the gap. The speed with which they migrate is a measure of their migratory capacity.
B-D invasion through a basement membrane (number of cells are given that had invaded).
E, colony formation in soft agar (number of colonies). The invasion assay uses a basement membrane in a culture dish. The cells are seeded on top of the membrane, and after a predetermined time (here: 24 h), the number of cells at the bottom of the membrane is determined. This is a measure of the capacity of the cells to invade tissue. Colony formation measures a capacity also termed ‘anchorage-independent growth’. It is a particular capacity of metastatic cells to be able to grow to colonies without support from other cells of solid support (as in a plastic dish). Individual cells are seeded in soft agar to immobilize them and to test whether the single cells can grow and form colonies, a feature of metastatic cells. The number of colonies formed is then measured.
The cell lines and conditions were described in the legend to FIG. 1. zVAD, caspase-inhibitor zVAD-fmk. Ctrl., control cells; the other cell lines are labelled according to their genetic modification (gene deletion; Bcl-XL-overexpression). […]

[4] = system: HeLa cells; experiment: Chromosomal missegregation (CIN) and micronuclei in cancer cells; assay type: cell-based, human; details: cells incubated for one day with caspase-inhibitor
Source text: A, the various pictures of chromosomal missegregation/misalignment are shown as examples (left) and enumerated in HeLa cells (cervical carcinoma line; ctrl., control; CAD, lacking CAD; STING, lacking STING; STING is not relevant to this invention).
C, missegregation in HeLa cells with inhibition in the mitochondrial apoptosis apparatus. Symbols as in A. zVAD-fmk is a small molecule pan-caspase-inhibitor. Apaf-1 is an adapter protein of caspase-9 that is required for caspase-activation upon release of cytochrome c from mitochondria. Both Bax and Bak can directly release cytochrome c, and the presence of at least one of them is required for mitochondrial apoptosis. Bcl-XL is a mitochondrial protein that blocks the activation and activity of Bax and Bak and thereby inhibits apoptosis. […]
Metastasis is linked in the literature to chromosomal instability (CIN), most likely because DNA-ligands are generated that stimulate the cells. […] This is clear because cancer cells modified to lack CAD or components of the (CAD-activating) mitochondrial apoptosis apparatus, or where apoptosis signaling was blocked using a chemical caspase inhibitor (zVAD-fmk), all show reduced CIN (measured as chromosomal missegregation, for instance as chromatin-bridges in dividing cells) and numbers of MN (FIG. 1). […]

SMILES | CAD-inhibitory activity against caspase-activated CAD (γH2AX) [1] | Inhibition of auxin-dependent DDR (γH2AX) [2] | aggressive growth in vitro (migration, invasion, colony formation) [3] | CIN (chromosomal missegregation) [4] | numbers of MN (micronuclei) [4]
O=C1/C(=C/c2ccccn2)N2CCC1CC2 [CBN16, (2Z)-2-(pyridin-2-ylmethylidene)-1-azabicyclo[2.2.2]octan-3-one] | CAD-inhibitory activity | blocked the DDR | – | – | –
CC(=O)Nc1nc([N+](=O)[O-])n(-c2ccccc2)n1 [CBN17, N-(5-nitro-1-phenyl-1,2,4-triazol-3-yl)acetamide] | CAD-inhibitory activity | blocked the DDR | – | – | –
COc1cc(/C=C2/CCC/C(=C\c3ccc(O)c(OC)c3)C2=O)ccc1O [CBN40, (2E,6Z)-2,6-bis[(4-hydroxy-3-methoxyphenyl)methylidene]cyclo-hexan-1-one] | – | blocked the DDR | – | – | –
O=C(Cn1ncc(Cl)c(Cl)c1=O)Nc1ccc(N2CCCC2)cc1 [CBN62, 2-(4,5-dichloro-6-oxopyridazin-1-yl)-N-(4-pyrrolidin-1-ylphenyl)acetamide] | CAD-inhibitory activity | blocked the DDR | – | – | –
O=C1NC(=S)NC(=O)C1=Cc1c2ccccc2cc2ccccc12 [CBN65, 5-(anthracen-9-ylmethylidene)-2-sulfanylidene-1,3-diazinane-4,6-dione] | CAD-inhibitory activity | blocked the DDR | – | – | –
Cc1nn(Cc2ccc(Cl)c(Cl)c2)c(C)c1NC(=O)CCCS(=O)(=O)c1nc(-c2cccs2)cc(C(F)(F)F)n1 [CBN68, N-[1-[(3,4-dichlorophenyl)methyl]-3,5-dimethylpyrazol-4-yl]-4-[4-thiophen-2-yl-6-(trifluoromethyl)pyrimidin-2-yl]sulfonylbutanamide] | CAD-inhibitory activity | blocked the DDR | – | – | –
Clc1ncnc2c1C(c1ccc(Br)cc1)c1c(Cl)ncnc1O2 [CD9, 9-(4-bromophenyl)-7,11-dichloro-2-oxa-4,6,12,14-tetrazatricyclo[8.4.0.0^3,8] tetradeca-1(10),3(8),4,6,11,13-hexaene] | CAD-inhibitory activity | blocked the DDR | – | – | –
O=c1c(Cl)c(Cl)cnn1-c1ccccc1 [CD22, 4,5-dichloro-2-phenylpyridazin-3-one] | CAD-inhibitory activity | blocked the DDR | – | – | –
O=[N+]([O-])c1ccc(C=Nc2cc(C(F)(F)F)ccc2N2CCOCC2)s1 [MB4, N-[2-morpholin-4-yl-5-(trifluoromethyl)phenyl]-1-(5-nitrothiophen-2-yl)methanimine] | CAD-inhibitory activity | blocked the DDR | – | – | –
Cc1ccc(Sc2ccc([N+](=O)[O-])c3nonc23)cc1 [MB26, 4-(4-methylphenyl)sulfanyl-7-nitro-2,1,3-benzoxadiazole] | CAD-inhibitory activity | blocked the DDR | – | – | –
COc1cc(/C=C2\CCc3ccccc3C2=O)cc(OC)c1OC [MB33, (2E)-2-[(3,4,5-trimethoxyphenyl)methylidene]-3,4-dihydronaphthalen-1-one] | – | blocked the DDR | – | – | –
COc1cc(/C=C2\CCc3ccccc3C2=O)cc(OC)c1 [MB37, (2E)-2-[(3,5-dimethoxyphenyl)methylidene]-3,4-dihydronaphthalen-1-one] | – | blocked the DDR | – | – | –
COC(=O)C[C@H](NC(=O)[C@H](C)NC(=O)[C@@H](NC(=O)OCc1ccccc1)C(C)C)C(=O)CF [zVAD-fmk] (Cbz-Val-Ala-Asp(OMe)-CH2F) | – | – | less aggressive growth | reduced CIN | reduced
